In EP1803452A1, “ESTER DERIVATIVE AND PHARMACEUTICAL USE THEREOF” (Japan Tobacco, Inc., priority 2004, dated 2006):

Columns and labels:
[1] = Metabolic stability test in plasma; assay type: in vitro ADME, human; conditions: LC/MS; for remaining at 10 min: unchanged form after 10 minutes at 37°C in human plasma, read-out: Remaining rate in human plasma (%/10min); for remaining at 1 h: unchanged form after 60 minutes at 37°C in human plasma, read-out: Remaining rate in human plasma (%/60min)
Method in brief: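 Remaining rate (%) versus zero time was derived from LC/MS measurement of parent compound after centrifugation. Plasma from human, mouse and hamster received DMSO-dissolved compound and was held at 37°C for 0, 10 or 60 minutes before acetonitrile containing formic acid (final 0.1%) stopped the reaction.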

[2] = Stability test in buffer (pH 7.4); assay type: physicochemical; conditions: phosphate buffer/acetonitrile 7:3, 100 mM potassium phosphate buffer (pH 7.4) and acetonitrile 7:3 (v/v), LC/MS; for remaining at 10 min: 10 minutes at 37°C, read-out: Buf. remaining rate (%/10min); for remaining at 1 h: 60 minutes at 37°C, read-out: Buf. remaining rate (%/60min)
Method in brief: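 Parent compound measured by LC/MS after 0, 10 or 60 min at 37°C in a 7:3 (v/v) mix of 100 mM potassium phosphate buffer and acetonitrile, with the reaction stopped by acetonitrile plus formic acid (final 0.1%). Percentage remaining is expressed relative to the zero-time amount.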

[3] = Metabolic stability test in liver S9; assay type: in vitro ADME; conditions: pH 7.4, human liver S9 2 mg protein/mL, LC/MS; for remaining at 10 min: unchanged form after 10 minutes at 37°C, read-out: Remaining rate in human liver S9 (%/10min); for remaining at 1 h: unchanged form after 60 minutes at 37°C, read-out: Remaining rate in human liver S9 (%/60min)
Method in brief: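 Compound from DMSO solution was incubated at 37°C with human liver S9 (final 2 mg protein/mL) in 100 mM potassium phosphate pH 7.4 with an NADPH-regenerating system for 0, 10 and 60 minutes. Reactions were stopped with acetonitrile/0.1% formic acid. Unchanged compound was measured by LC/MS as remaining rate (%) relative to zero time.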

Row | remaining at 10 min [1] [%] | remaining at 1 h [1] [%] | remaining at 10 min [2] [%] | remaining at 1 h [2] [%] | remaining at 10 min [3] [%] | remaining at 1 h [3] [%] | Compound
1 | 39 | 0 | 99 | 102 | 5 | 2 | COC(=O)c1cc(C)c(OC(=O)CCCc2ccc(NC(=O)c3ccc(C)nc3-c3ccc(C(F)(F)F)cc3)c(C(=O)N(C)C)c2)c(OC)c1 [Compound 1-46, 4-[4-(3-dimethylcarbamoyl-4-{[6-methyl-2-(4-trifluoromethylphenyl)pyridine-3-carbonyl]amino}phenyl)butyryloxy]-3-methoxy-5-methylbenzoic acid methyl ester]
2 | 0 | 0 | 99 | 97 | 16 | 6 | CCOC(=O)c1cc(Cl)c(OC(=O)CCCc2ccc(NC(=O)c3ccc(C)nc3-c3ccc(C(F)(F)F)cc3)c(C(=O)N(C)C)c2)c(OC)c1 [Compound 1-48, 3-chloro-4-[4-(3-dimethylcarbamoyl-4-{[6-methyl-2-(4-trifluoromethylphenyl)pyridine-3-carbonyl]amino}phenyl)butyryloxy]-5-methoxybenzoic acid ethyl ester]
3 | 23 | 0 | 98 | 101 | 8 | 3 | CCc1cc(C(=O)OC)cc(C(=O)OC)c1OC(=O)CCCc1ccc(NC(=O)c2ccc(C)nc2-c2ccc(C(F)(F)F)cc2)c(C(=O)N(C)C)c1 [Compound 1-51, 4-[4-(3-dimethylcarbamoyl-4-([6-methyl-2-(4-trifluoromethylphenyl)pyridine-3-carbonyl]amino}phenyl)butyryloxy]-5-ethylisophthalic acid dimethyl ester]
4 | 12 | 0 | 100 | 101 | 13 | 4 | CCOC(=O)c1cc(C)c(OC(=O)CCCc2ccc(NC(=O)c3ccc(C)nc3-c3ccc(C(F)(F)F)cc3)c(C(=O)N(C)C)c2)c(C(=O)OC)c1 [Compound 1-52, 4-[4-(3-dimethylcarbamoyl-4-{[6-methyl-2-(4-trifluoromethylphenyl)pyridine-3-carbonyl]amino}phenyl)butyryloxy]-5-methylisophthalic acid 1-ethyl ester 3-methyl ester]
5 | 3 | 3 | 100 | 106 | 5 | 2 | COC(=O)c1cc(OC)c(OC(=O)CCCc2ccc(NC(=O)c3ccc(C)nc3-c3ccc(C(F)(F)F)cc3)c(C(=O)N(C)C)c2)c(C(=O)OC)c1 [Compound 1-53, 4-[4-(3-dimethylcarbamoyl-4-{[6-methyl-2-(4-trifluoromethylphenyl)pyridine-3-carbonyl]amino}phenyl)butyryloxy]-5-methoxyisophthalic acid dimethyl ester]
6 | 98 | 94 | 104 | 104 | 8 | 0 | COC(=O)c1cc(C)c(OC(=O)CCCc2ccc(NC(=O)c3ccc(C)nc3-c3ccc(C(F)(F)F)cc3)c(C(=O)N(C)C)c2)c(C)c1 [Compound 1-65, 4-[4-(3-dimethylcarbamoyl-4-{[6-methyl-2-(4-trifluoromethylphenyl)pyridine-3-carbonyl]amino}phenyl)butyryloxy]-3,5-dimethylbenzoic acid methyl ester]

More lines, now with the values behind:

Row | Compound | remaining at 10 min [1] [%] | remaining at 1 h [1] [%] | remaining at 10 min [2] [%] | remaining at 1 h [2] [%] | remaining at 10 min [3] [%] | remaining at 1 h [3] [%]
7 | COC(=O)c1cc(C)c(OC(=O)CCCc2ccc(NC(=O)c3ccc(C)nc3-c3ccc(C(F)(F)F)cc3)c(C(=O)N(C)C)c2)c(C(F)(F)F)c1 [Compound 1-45, 4-[4-(3-dimethylcarbamoyl-4-([6-methyl-2-(4-trifluoromethylphenyl)pyridine-3-carbonyl]amino}phenyl)butyryloxy]-3-methyl-5-trifluoromethylbenzoic acid methyl ester] | 89 | 48 | 101 | 102 | 12 | 2
8 | COC(=O)c1cc(OC)c(OC(=O)CCCc2ccc(NC(=O)c3ccc(C)nc3-c3ccc(C(F)(F)F)cc3)c(C(=O)N(C)C)c2)c(C(F)(F)F)c1 [Compound 1-47, 4-[4-(3-dimethylcarbamoyl-4-{[6-methyl-2-(4-trifluoromethylphenyl)pyridine-3-carbonyl]amino}phenyl)butyryloxy]-3-methoxy-5-trifluoromethylbenzoic acid methyl ester] | 0 | 0 | 96 | 97 | 14 | 0
9 | CCOc1cc(C(=O)OC)cc(OC)c1OC(=O)CCCc1ccc(NC(=O)c2ccc(C)nc2-c2ccc(C(F)(F)F)cc2)c(C(=O)N(C)C)c1 [Compound 1-49, 4-[4-(3-dimethylcarbamoyl-4-{[6-methyl-2-(4-trifluoromethylphenyl)pyridine-3-carbonyl]amino}phenyl)butyryloxy]-3-ethoxy-5-methoxybenzoic acid methyl ester] | 0 | 0 | 100 | 100 | 6 | 1
10 | COC(=O)c1cc(Br)c(OC(=O)CCCc2ccc(NC(=O)c3ccc(C)nc3-c3ccc(C(F)(F)F)cc3)c(C(=O)N(C)C)c2)c(OC)c1 [Compound 1-50, 3-bromo-4-[4-(3-dimethylcarbamoyl-4-{[6-methyl-2-(4-trifluoromethylphenyl)pyridine-3-carbonyl]amino}phenyl)butyryloxy]-5-methoxybenzoic acid methyl ester] | 0 | 0 | 97 | 103 | 7 | 2
11 | COC(=O)c1cc(C)c(OC(=O)CCCc2ccc(NC(=O)c3ccccc3-c3ccc(C(F)(F)F)cc3)c(C(=O)N(C)C)c2)c(C)c1 [Compound 1-64, 4-[4-(3-dimethylcarbamoyl-4-{(4'-trifluoromethylbiphenyl-2-carbonyl)amino}phenyl)butyryloxy]-3,5-dimethylbenzoic acid methyl ester] | 98 | 93 | 100 | 101 | 21 | 4
12 | COC(=O)c1ccc(OC(=O)CCCc2ccc(NC(=O)c3ccccc3-c3ccc(C(F)(F)F)cc3)c(C(=O)N(C)C)c2)c(C)c1 [Compound 1-66, 4-[4-(3-dimethylcarbamoyl-4-{(4'-trifluoromethylbiphenyl-2-carbonyl)amino}phenyl)butyryloxy]-3-methylbenzoic acid methyl ester] | 67 | 8 | 101 | 103 | 3 | 0
13 | CCc1cc(C(=O)OC)ccc1OC(=O)CCCc1ccc(NC(=O)c2ccccc2-c2ccc(C(F)(F)F)cc2)c(C(=O)N(C)C)c1 [Compound 1-67, 4-[4-(3-dimethylcarbamoyl-4-{(4'-trifluoromethylbiphenyl-2-carbonyl)amino}phenyl)butyryloxy]-3-ethylbenzoic acid methyl ester] | 77 | 17 | 103 | 105 | 3 | 0
14 | COC(=O)c1ccc(OC(=O)CCCc2ccc(NC(=O)c3ccccc3-c3ccc(C(F)(F)F)cc3)c(C(=O)N(C)C)c2)c(C(C)C)c1 [Compound 1-68, 4-[4-(3-dimethylcarbamoyl-4-{(4'-trifluoromethylbiphenyl-2-carbonyl)amino}phenyl)butyryloxy]-3-isopropylbenzoic acid methyl ester] | 77 | 18 | 101 | 103 | 11 | 3
15 | COC(=O)c1ccc(OC(=O)CCCc2ccc(NC(=O)c3ccc(C)nc3-c3ccc(C(F)(F)F)cc3)c(C(=O)N(C)C)c2)c(C)c1 [Compound 1-69, 4-[4-(3-dimethylcarbamoyl-4-{[6-methyl-2-(4-trifluoromethylphenyl)pyridine-3-carbonyl]amino}phenyl)butyryloxy]-3-methylbenzoic acid methyl ester] | 70 | 11 | 101 | 106 | 0 | 0
